# Results: patent US11590075B2, “Methods and products for reducing adhesions” (priority 2017, dated 2023)
# Tests used:
# [1] = test system: type I collagen release in primary human nasal fibroblasts; assay: Collagen assay (procollagen type I C-peptide ELISA); format: cell-based; conditions: different concentrations (1, 5, 10, 20 mM)
# Experimental: Primary human nasal fibroblasts were seeded in 24-well tissue-culture plates at a density of 5×10^5 grown in DMEM until confluent. […] Following treatment, the supernatant was collected and the protein level of type I collagen was measured with a procollagen type I C-peptide ELISA kit (Takara Bio Inc, Otsu, Japan). Experimental procedures followed the manufacturer's instruction. Briefly, 20 μl of culture medium and 100 μl of the antibody-POD conjugate solution were sequentially added into microtiter plates and reacted for 3 hours at 37° C. After 4× washing with washing buffer solution (1×PBST), 100 μl of the substrate solution was added and incubated for 15 minutes at RT. Finally, the stop solution (100 μl) was added and corresponding absorbance was recorded at 450 nm using a FLUOstar OPTIMA plate reader (BMG Labtech, Ortenberg, Germany).
# [2] = test system: IL-6 production in nasal fibroblast cells; assay: IL-6 ELISA, nasal fibroblasts with IL-1β; format: cell-based, human; conditions: in the presence or absence of IL-13 (so in the source), after 24 hours
# Experimental: (§1) Supernatants were collected from HNECs and fibroblasts after 24 hours of exposure with different concentrations of deferiprone in the presence/absence of the pro-inflammatory agent Poly (I:C) (10 μg/ml) or IL-1β (10 ng/ml Sigma, Saint Louis, USA) respectively. Interleukin-6 (IL-6) protein levels were estimated with an ELISA kit using rat anti-human IL-6 antibodies (BD Biosciences, New Jersey, USA), according to the manufacturer's instructions. All measurements were performed in duplicate using a FLUOstar OPTIMA plate reader (BMG Labtech, Ortenberg, Germany). The tissue sample concentration was calculated from a standard curve and corrected for protein concentration.
# [3] = test system: primary human nasal fibroblasts; assay: Wound healing (migration) scratch assay, fibroblasts; format: cell-based; conditions: for wound healing of primary fibroblasts: after 44 hours
# Experimental: In the fibroblast wound closure assay, fibroblasts were seeded in 24 well plates, stained with CellTrace™ Violet (Invitrogen/Life Technologies, USA) and allowed to get 80% confluent in 24 hours. A straight vertical scratch was made down through the fibroblast and HNEC-ALI cell monolayers by using a 200 μl pipette tip. The media and cell debris was aspirated carefully and culture media with different concentrations of deferiprone (1 mM, 5 mM, 10 mM, 20 mM) or media only (negative control) added to each well for 72 hours. At time zero, cells were treated with 1 μg/ml mitomycin (Accord Healthcare Inc, NDC 16729-108-11, USA) to inhibit cell proliferation. The wound closure (cell migration) was recorded using time-lapse LSM700 confocal scanning laser microscopy (Zeiss Microscopy, Germany), with an image recorded every 4 hours in a temperature and CO2 controlled chamber. Data was analysed using Image.
# primary fibroblasts [4] = assay: Alamar Blue proliferation assay; format: cell-based
# Experimental: Alamar Blue Proliferation Assay Fibroblasts were seeded at a density of 2×10^4 cells/well in 96 well plates (Nuns, Sydney Australia) and cultured at 37° C., 5% CO2 for 24 hours Media was aspirated and cells were washed twice in phosphate buffered saline. The following treatments were used: • (i) No treatment control (NTC)—DMEM (Invitrogen, Sydney Australia) containing Penicillin at 500 U/mL, Streptomycin and Amphotericin B (Sigma-Aldrich, MO) at 0.5 mg/mL, 10% Fetal Bovine Serum. • (ii) 5 mM of Deferiprone dissolved in control media. • (iii) 10 mM Deferiprone dissolved in control media. • (iv) 20 mM Deferiprone dissolved in control media. Readings were taken at 4, 24, 48 and 72 hours. At each time point media was aspirated and fresh control media with 10% Alamar Blue was added and incubated in the dark for 6 hours at 37° C. 5% CO2. The plate was then read at 570 and 595 nm according to manufacturer's instructions. Fibroblasts proliferation was measured using the Alamar Blue reduction assay. The assay is based on use of resazurin, a non-toxic, cell permeable compound which is blue in colour and non-fluorescent. Resazurin is reduced to resorufin a compound that is red in colour and highly fluorescent. Viable cells continuously convert resazurin to resorufin, increasing the overall fluorescence and colour of the media surrounding cells.
# HNEC-ALI cultures = assay: Wound healing (migration) scratch assay, HNEC-ALI; format: cell-based, human; conditions: 1, 5, 10, 20 mM for up to 68 hours; untreated healed by 68 hours
# Experimental: HNECs were grown until 80% confluent then harvested for seeding onto collagen coated 6.5 mm permeable Transwell plates (BD Biosciences, San Jose, Calif., USA) at a density of 5×10^4 cells per well. Cells were maintained with B-ALI™ growth medium for 2-3 days in a cell incubator at 37° C. with 5% CO2. On day 3 after seeding, the apical media was removed and the basal media replaced with B-ALI™ differentiation media, exposing the apical cell surface to the atmosphere. Human nasal epithelial cultures at air liquid interface (HNEC-ALI) were maintained for a minimum of 14 days for development of tight junctions and 28 days for cilia generation. In the fibroblast wound closure assay, fibroblasts were seeded in 24 well plates, stained with CellTrace™ Violet (Invitrogen/Life Technologies, USA) and allowed to get 80% confluent in 24 hours. A straight vertical scratch was made down through the fibroblast and HNEC-ALI cell monolayers by using a 200 μl pipette tip. […] The wound closure (cell migration) was recorded using time-lapse LSM700 confocal scanning laser microscopy (Zeiss Microscopy, Germany), with an image recorded every 4 hours in a temperature and CO2 controlled chamber. Data was analysed using Image.
# primary fibroblasts [5] = assay: Fibroblast wound healing protocol (gap closure, migration); format: cell-based
# Experimental: 1. Fibroblast Wound Healing Protocol Fibroblasts were stained with CellTrace Proliferation Kit (Thermo-Fisher Scientific, Life Technologies, CA) and prepared in a suspension of 3×10^5 cells/mL of DMEM (Invitrogen, Sydney Australia) containing Penicillin at 500 U/mL, Streptomycin and Amphotericin B (Sigma-Aldrich, MO) at 0.5 mg/mL, 10% Fetal Bovine Serum. 70 uL of this suspension were seeded into each chamber inserts of the Ibidi culture-insert 24 (Ibidi GmbH, Munich, Germany) and cultured for 12 hours at 37° C., 5% CO2. The inserts were then removed with sterile forceps and cells washed twice in phosphate buffered saline. The following treatments were used: • (i) No treatment control (NTC) DMEM (Invitrogen, Sydney Australia) containing Penicillin at 500 U/mL, Streptomycin and Amphotericin B (Sigma-Aldrich, MO) at 0.5 mg/mL 10% Fetal Bovine Serum. • (ii) 5 mM of Deferiprone dissolved in control media. • (iii) 10 mM Deferiprone dissolved in control media. • (iv) 20 mM Deferiprone dissolved in control media. The effects on cells were recorded in real time at 37° C., 5% CO2 and imaged at intervals of 0, 8, 24 and 48 hours using Zeiss LSM700 Confocal (Carl Zeiss, Oberkochen, Germany) until gap closure. Image properties: DAPI blue signal; 405 nm laser; line step 2; line average 4; bit 12; zoom 0.5; 512×512 pixels; time series.
# [6] = test system: primary human nasal epithelial cells (HNECs); assay: Cytotoxicity, LDH assay, HNECs; format: cell-based; conditions: exposure 1 h, 2 h, 3 h, 4 h, 5 h and 6 h; deferiprone 1, 5, 10, 20 mM (p>0.05); Triton X-100 0.5%
# Source text: Primary human nasal epithelial […] harvested from nasal polyps by gentle brushing in a method described by Ramezanpour et al. (2016) “Th17 cytokines disrupt the airway mucosal barrier in chronic rhinosinusitis” Mediators of inflammation; 2016: 9798206. doi: 10.1155/2016/9798206. Extracted cells were suspended in Bronchial Epithelial Growth Media (BEGM, CC-3170, Lonza, Walkersville, Md., USA), supplemented with 2% Ultroser G (Pall Corporation, Port Washington, N.Y., USA). The cell suspension was depleted of macrophages using anti-CD68 (Dako, Glostrup, Denmark) coated culture dishes, and HNECs were maintained with B-ALITM growth medium (Lonza, Walkersville, USA) in collagen coated flasks (Thermo Scientific, Walthman, Mass., USA) in a cell incubator at 37° C. with 5% CO2. Primary human fibroblasts or epithelial cells were grown in DMEM and BEGEM (Lonza, Walkersville, USA) medium respectively. Cells were maintained in a fully humidified incubator with 5% CO2 at 37° C. prior to cytotoxicity studies. […] The optical density (OD) was measured at 490 Mil on a FLUOstar OPTIMA plate reader (BMG Labtech, Ortenberg, Germany), Cell culture studies were performed as three independent experiments.
# [7] = test system: primary human nasal fibroblasts; assay: Cytotoxicity, LDH assay, nasal fibroblasts; format: cell-based; conditions: exposure 1 h, 2 h, 3 h, 4 h, 5 h and 6 h; deferiprone 1, 5, 10, 20 mM (p>0.05); Triton X-100 0.5%
# Experimental: Sinonasal tissue was biopsied from paranasal sinus mucosa and transferred to a 6-well culture plate with 2 ml Dulbecco's Modified Eagle's medium (DMEM, Invitrogen, UK) supplemented with 1:100 L-glutamine, 10% Fetal bovine serum (FBS, Sigma-Aldrich), 1:100 ascorbic acid 2-phosphate, and 1:100 penicillin streptomycin (Gibco, Life Technologies) and incubated. Every 2-3 days, the tissue was washed gently with 1 ml phosphate-buffered saline (PBS) and medium was replaced with 1.5 ml fresh medium until fibroblasts became confluent after approximately 2 weeks. Once confluent, fibroblasts were washed with 2 ml PBS, trypsinized and collected followed by centrifugation at 400×g for 8 minutes. The supernatant was removed and pellet resuspended in 1 ml PBS along with 50 μl Dynabeads Epithelial Enrich (Invitrogen, USA). The tube was wrapped in parafilm and placed on a rotor mixer for 20 minutes at room temperature (RT). Supernatant containing fibroblasts were transferred to a T25 tissue culture flask and the tube containing the remaining beads discarded Primary human fibroblasts or epithelial cells were grown in DMEM and BEGEM (Lonza, Walkersville, USA) medium respectively. […] The optical density (OD) was measured at 490 Mil on a FLUOstar OPTIMA plate reader (BMG Labtech, Ortenberg, Germany), Cell culture studies were performed as three independent experiments.
# [8] = test system: IL-6 production in human nasal epithelial cells; assay: IL-6 ELISA, HNECs with Poly (I:C); format: cell-based; conditions: 24 hours, in the presence of Poly (I:C) LMW
# Experimental: as §1
structure (smiles),measurement,setting,value
"Cc1c(O)c(=O)ccn1C [deferiprone, 3-hydroxy-1,2-dimethylpyridin-4(1H)-one]",collagen protein concentrations in supernatants of fibroblast monolayers,"[1]; 24 hours as printed, absence of ASC, p<0.0001",significantly reduced collagen protein concentrations
same,collagen secretion in the presence of L-Ascorbic acid-2 phosphate (ASC),[1]; with ASC,significantly inhibited collagen secretion in a dose dependent manner
same,secretion of IL-6 in nasal fibroblasts,[2],did not alter the secretion of IL-6
same,wound healing of primary fibroblasts,[3]; 5 mM,significantly delayed healing
same,wound healing of primary fibroblasts,[3]; 10 mM,significantly delayed healing
same,wound closure of primary fibroblasts,"[3]; 20 mM, at 28 h and all time points thereafter, untreated closed after 44 hours",significant delay in wound closure
same,inhibition of fibroblast proliferation (Alamar Blue),"primary fibroblasts [4]; 5, 10, 20 mM deferiprone, readings at 4, 24, 48, 72 hours, 2-way ANOVA",significant dose dependent effect
same,time course of inhibition of proliferation,primary fibroblasts [4]; occurred over a period of at least 24 to 72 hours,time dependent
same,wound healing in HNEC-ALI cultures,HNEC-ALI cultures,did not show any significant delay in wound healing
same,closure of void in fibroblasts,"primary fibroblasts [5]; 20 mM deferiprone, up to 48 hours, control cells close the void after 48 hours",minimal closure
same,fibroblast migration,"primary fibroblasts [5]; within 48 hours, 5, 10, 20 mM",inhibited fibroblast migration
same,LDH release (cytotoxicity) in HNECs,[6],no significant increase in LDH release
same,LDH release (cytotoxicity) in fibroblasts,[7],no significant increase in LDH release
same,reduction of IL-6 protein concentrations in HNECs,"[8]; 10 mM, p=0.001",80%
same,reduction of IL-6 protein concentrations in HNECs,"[8]; 20 mM, p=0.0001",96%
